Data taken from patent publication US20250177275A1, “ACTIVE AGENT MODULATING THE ACTIVITY OF AN ION CHANNEL FOR USE IN INHIBITION OF SKIN AGING” (Cutaneon - Skin & Hair Innovations GmbH, priority 2022, published 2025).
Entries after “also recorded” stand apart in the source; their conditions may differ.

Legend:
Collagen 17A [1] = assay: Collagen 17A immunofluorescence, quantitative immunohistomorphometry in ex vivo human skin organ culture; format: cell-based; settings: 3 days
Procedure: (§1) Samples of human abdominal, breast, temporal, and occipital skin were obtained with written patient consent and under ethical approval from healthy adult human subjects during elective plastic surgery performed for cosmetic reasons. Full-thickness human skin samples were prepared as 4-6 mm punches, placed on filter paper, and cultured at the air-liquid interphase under serum-free conditions in William's E medium supplemented only with penicillin-streptomycin, insulin, hydrocortisone and L-glutamine, as described previously.
For modelling the application of the actives directly to the skin surface (topical application) 2,5-dimethylpyrazine (DMP), a TRPM5 activator was dissolved at 37° C. at a final concentration of 12.5 mM in a 50% v/v solution of Isopropanol in PBS containing 1 g/mL of Polyethylene glycol 6000. […]
(§2) Images were then obtained with a digital microscope (Keyence). Quantitative immunohistomorphometric analysis was performed by assessing the relative fluorescent or color intensity in standardized reference areas with ImageJ (NIH; Bethesda, MD, USA). […] Two skin punch biopsies were analyzed per experimental group unless indicated otherwise. […]

Cytokeratin 15 [2] = assay: Cytokeratin 15 immunofluorescence, quantitative immunohistomorphometry in ex vivo human skin organ culture; format: cell-based; settings: topical DMP 12.5 mM, 3 days, vs vehicle
Procedure: as §1, with “previously. […]” for “previously.”
as §2
After consecutive rinses with PBS, samples were incubated with Alexa fluorophore-conjugated secondary antibodies diluted 1:500 in antibody diluent containing 2% normal goat serum for 45 minutes at room temperature. […] Image acquisition and quantitative immunohistomorphometric analysis were performed similar to as described above.

Lamin B1 = Lamin B1 immunofluorescence, quantitative immunohistomorphometry in ex vivo human skin organ culture; format: cell-based; settings: systemic (medium) DMP 12.5 μM, 3 days, vs vehicle
PGC1α = PGC1α immunofluorescence, quantitative immunohistomorphometry in ex vivo human skin organ culture; format: cell-based; settings: systemic (medium) DMP 12.5 μM, 3 days, vs vehicle
Sirtuin-1 = Sirtuin-1 immunohistochemistry, quantitative immunohistomorphometry in ex vivo human skin organ culture; format: cell-based; settings: systemic (medium) DMP 12.5 μM, 3 days, vs vehicle
Ki67 [3] = assay: Ki67 immunofluorescence, quantitative immunohistomorphometry in ex vivo human skin organ culture; format: cell-based; settings: 3 days
Procedure: as §1, with “previously. […]” for “previously.”
as §2
For the detection of Ki67, formalin-fixed human skin frozen sections were blocked with PBS containing 10% normal goat serum (NGS) for 30 minutes at room temperature and then incubated with an anti-Ki67 antibody diluted 1:800 in PBS containing 2% NGS overnight at 4° C. […] Image acquisition and quantitative immunohistomorphometric analysis were performed similar to as described above.

Collagen 17A [4] = assay: Collagen 17A immunofluorescence in normal human epidermal keratinocyte (NHEK) culture; format: cell-based; settings: 24 hrs; for expression of Collagen 17A in NHEKs: vs vehicle
Procedure: (§3) Primary adult normal human epidermal keratinocytes (NHEK) were cultured in serum-free Keratinocyte Growth Medium 2 (KGM2) up to passage 6 and were seeded on glass slides at a density of 15-20×10^3 cells/cm^2. The next day, the KGM2 culture medium was changed and supplemented with hereafter indicated compounds, their combination or ethanol as vehicle control.
(§4) For application of the active to the medium (systemic application), 2,5-dimethylpyrazine (DMP), a TRPM5 activator, the DMP stock was dissolved at 37° C. at a final concentration of 10, 12.5 or 100 nM in KGM2. For triphenylphosphine oxide (TPPO), a TRPM5 inhibitor, a stock was prepared in ethanol and dissolved at 37° C. at a final concentration of 50 μM in KGM2. After 24 hours, NHEKs were washed in PBS and then either fixed in 4% formaldehyde for 10 minutes are room temperature (immunofluorescence labeling) or lysed in Buffer RLT containing 1% β-mercaptoethanol (for quantitative RT-qPCR).
(§5) For the detection of Collagen 17A in cell cultures, formalin-fixed NHEKs were permeabilized in PBS containing 0.05% Triton™ X-100 for 10 minutes, rinsed in PBS and then blocked in PBS containing 10% normal goat serum (NGS) for 20 minutes. Next, samples were incubated with an anti-Collagen 17A diluted 1:100 in antibody diluent overnight at 4° C. After consecutive rinses with PBS, samples were incubated with Alexa fluorophore-conjugated secondary antibodies diluted 1:500 in antibody diluent containing 2% NGS for 45 minutes at room temperature. […]
(§6) For the analysis on NHEKs, images were then obtained with a digital microscope (Keyence). Quantitative immunohistomorphometric analysis was performed by assessing the number of positive cells or the relative fluorescence intensity in standardized reference areas with ImageJ (NIH; Bethesda, MD, USA). Briefly, for the evaluation of Collagen 17A, the relative target-specific intensity was measured in 14-20 cells per microscopic field. For each parameter 14-20 microscopic fields were evaluated.

Cytokeratin 15 [5] = assay: Cytokeratin 15 immunofluorescence in normal human epidermal keratinocyte (NHEK) culture; format: cell-based; settings: 24 hrs; for expression of Cytokeratin 15 in NHEKs: vs vehicle
Procedure: as §3, §4
as §5, with “Cytokeratin 15” for “Collagen 17A”, “anti-Cytokeratin 15” for “anti-Collagen 17A”
as §6, with “Cytokeratin 15,” for “Collagen 17A,”

COL17A1 = COL17A1 mRNA by RT-qPCR in NHEK culture; format: cell-based, human; settings: DMP 10 nM, 24 hrs, normalized to GAPDH, vs vehicle
Procedure: as §3
as §4, with “For triphenylphosphine oxide (TPPO), a TRPM5 inhibitor, a stock was prepared in ethanol and dissolved at 37° C. at a final concentration of 50 μM in KGM2.” left out
(§7) For the assessment of Collagen 17A and Cytokeratin 15 specific mRNA transcripts (COL17A, KRT15) by quantitative RT-qPCR technology, RNA was isolated from cells lysed in Buffer RLT containing 1% β-mercaptoethanol using the RNeasy Mini Kit according to the manufacturer's instructions. RNA purity and concentrations were determined using the BioDrop. […] Real-time quantitative polymerase chain reaction (qRT-PCR) was run in triplicate using TaqMan™ Fast Advanced Master Mix and TaqMan Gene Expression Assays on the QuantStudio. […]

KRT15 = KRT15 mRNA by RT-qPCR in NHEK culture; format: cell-based, human; settings: DMP 100 nM, 24 hrs, normalized to GAPDH, vs vehicle
Procedure: as §3
as §4, with “For triphenylphosphine oxide (TPPO), a TRPM5 inhibitor, a stock was prepared in ethanol and dissolved at 37° C. at a final concentration of 50 μM in KGM2.” left out
as §7

Ki67 [6] = assay: Ki67 positive cell count (proliferation) in NHEK culture; format: cell-based, human; settings: DMP 100 nM, 24 hrs, vs vehicle
Procedure: as §3
as §4, with “For triphenylphosphine oxide (TPPO), a TRPM5 inhibitor, a stock was prepared in ethanol and dissolved at 37° C. at a final concentration of 50 μM in KGM2.” left out, “RT-qPCR). […]” for “RT-qPCR).”
as §6, with “Ki67,” for “Collagen 17A,”, “number of cells with positive nuclear staining per field” for “relative target-specific intensity”, “counted and normalized to the total number of DAPI positive nuclei.” for “measured in 14-20 cells per microscopic field.”

[7] = system: Phospho-Histone H3 Ser10 (pH3S10); assay: Phospho-Histone H3 Ser10 (pH3S10) positive cell count in NHEK culture; format: cell-based, human; settings: DMP 100 nM, 24 hrs, vs vehicle
Procedure: as §3
as §4, with “For triphenylphosphine oxide (TPPO), a TRPM5 inhibitor, a stock was prepared in ethanol and dissolved at 37° C. at a final concentration of 50 μM in KGM2.” left out, “RT-qPCR). […]” for “RT-qPCR).”
as §6, with “pH3S10,” for “Collagen 17A,”, “number of cells with positive nuclear staining per field” for “relative target-specific intensity”, “counted and normalized to the total number of DAPI positive nuclei.” for “measured in 14-20 cells per microscopic field.”

[8] = topical DMP 12.5 mM, vs vehicle
[9] = topical TPPO 1.5 mM with topical DMP 12.5 mM

Row | Compound | expression of Collagen 17A in the basal layers of the epidermis (Collagen 17A [1]; [8]) | expression of Cytokeratin 15 in the basal layers of the epidermis (Cytokeratin 15 [2]) | expression of Lamin B1 in the epidermis (Lamin B1) | expression of PGC1α in the epidermis (PGC1α) | expression of Sirtuin 1 in the epidermis (Sirtuin-1) | expression of Ki67 in the epidermis (Ki67 [3]; [8]) | expression of Collagen 17A in NHEKs (Collagen 17A [4]; DMP 12.5 nM) | expression of Collagen 17A in NHEKs (Collagen 17A [4]; DMP 100 nM) | expression of Cytokeratin 15 in NHEKs (Cytokeratin 15 [5]; DMP 12.5 nM) | expression of Cytokeratin 15 in NHEKs (Cytokeratin 15 [5]; DMP 100 nM) | gene expression of COL17A1 (RT-qPCR) (COL17A1) | gene expression of KRT15 (RT-qPCR) (KRT15) | number of Ki67 positive (proliferating) NHEKs (Ki67 [6]) | number of pH3S10 positive (dividing and proliferating) NHEKs [7] | effect on DMP-induced upregulation of Collagen 17A expression (Collagen 17A [1]; [9]) | effect on DMP-induced upregulation of Ki67 expression (Ki67 [3]; [9]) | effect on DMP-induced upregulation of Collagen 17A expression (Collagen 17A [4]; TPPO 50 μM with DMP 100 nM) | effect on DMP-induced upregulation of Cytokeratin 15 expression (Cytokeratin 15 [5]; TPPO 50 μM with DMP 100 nM)
1 | Cc1cnc(C)cn1 [DMP, 2,5-dimethylpyrazine] | upregulate; also recorded: markedly increases | markedly increases | markedly increases | markedly increases | markedly increases | upregulate | markedly increases | upregulate | markedly increases | upregulate | markedly increases | markedly increases | markedly increases | markedly increases |  |  |  | 
2 | O=P(c1ccccc1)(c1ccccc1)c1ccccc1 [TPPO, triphenylphosphine oxide, reference compound] |  |  |  |  |  |  |  |  |  |  |  |  |  |  | prevented the effect | prevented the effect | prevented the effect | prevented the effect
